Measured values taken from patent US12102648B2, “Orally-bioavailable nucleoside analogs” (priority 2021, dated 2024).
Like-named read-outs stand apart in the source and are kept apart here.

Assay: in vitro
Assay type: in vitro ADME
Conditions: human
Method: The bidirectional permeability of compounds across the Caco-2 cell monolayer was assessed. The Caco-2 model is a widely used in vitro model for small intestinal absorption and potential for efflux.
Cell culture. Caco-2 cells were grown in DMEM supplemented with 10% fetal bovine serum (FBS), 1% Penicillin-Streptomycin and 1% MEM NEAA. The cells were incubated at 37° C., 5% CO2/95% air and saturated humidity. After reaching 80-90% confluency, the cells were gently detached with trypsin. Cells at passage 39 were seeded on the 24-well BD insert system at the density of 8×10^4 cells/cm^2 and cultured for 19 days with medium changed every 2-3 days. Measure the transepithelial electrical resistance (TEER) value of each well. The wells can be used only when their TEER values are greater than 600 Ohms/cm^2.
Transport assay. After removing the cell culture medium from the 24-well insert plate, the cells were rinsed with warm transport buffer. Appropriate dosing and receiving solutions were applied to the donor and receiver chambers to initiate the transport assay in apical to basolateral (A to B) or basolateral to apical (B to A) directions ([…] for apical and basolateral wells, respectively). Duplicate wells in each direction were used for the test compound and control compound. The plate was incubated in CO2 incubator at 37° C., with 5% CO2/95% air and saturated humidity without shaking. The sample after 10-minute incubation was used as the T0 sample, and the sample after 90-minute incubation was used as the T90 sample. To and T90 samples were collected from the donor and receiver side of each well at the designed timepoint, mixed with the transport buffer and acetonitrile/MeOH (1:1, v/v) and the internal standard for LC/MS/MS analysis. All samples were vortexed and centrifuged at 4000 rpm at 4° C. for 15 minutes, diluted with pure water and stored at 4° C. before bioanalysis by LC/MS/MS.
Sample analysis. The concentrations of test compounds and control compounds in Caco-2 cells were quantitatively determined by LC/MS/MS method after protein precipitation.
Calculations. The apparent permeability (Papp, cm/s), efflux ratio (ER) and recovery parameters were calculated for Caco-2 drug transport assay using the following equations:
[formula] [formula] where VR is the solution volume in the receiver chamber (0.4 mL on the apical side, 1.2 mL on the basolateral side); Area is the surface area for the insert membrane, i.e., 0.3 cm^2 for the area of the monolayer; Time is incubation time, expressed in seconds, i.e., 5400 s (90 min) for the current experiment; Co is the initial concentration of test compound or peak area ratio of control compounds in the donor chamber (μM); VD is the volume in the donor chambers (0.4 mL on the apical side, 1.2 mL on the basolateral side); CD and CR are the final concentrations of test compounds or peak area ratio of control compounds in donor and receiver chambers, respectively.
Compounds with Papp<1.0 are classified as low permeability, Papp between 1-10 are classified as medium permeability, and Papp≥10 are classified as high permeability. An efflux ratio (ER)>2 indicates the compounds are potential substrates for intestinal cell efflux transporters.

Structure (SMILES) | Papp A→B at 90 min (Caco-2) [×10⁻⁶ cm/s] | Papp B→A at 90 min (Caco-2) [×10⁻⁶ cm/s] | efflux ratio at 90 min (Caco-2) | Papp A→B at 90 min (Caco-2 monolayer, apical to basolateral, 90-minute incubation, read-out: Papp, A-B) [×10⁻⁶ cm/s] | Papp B→A at 90 min (Caco-2 monolayer, basolateral to apical, 90-minute incubation, read-out: Papp, B-A) [×10⁻⁶ cm/s] | efflux ratio at 90 min (Caco-2 monolayer, ER>2 indicates potential efflux transporter substrate, read-out: ER (efflux ratio))
CC(C)(C)[C@@H](N)C(=O)OC[C@H]1O[C@@](C#N)(c2ccc3c(N)ncnn23)[C@H](O)[C@@H]1OC(=O)CC1CCCCC1 [Compound 392] | 5.6 | 16.4 | 3 |  |  | 
CN(C(=O)CC1CCCCC1)c1nc(N)nc2c1ncn2[C@@H]1O[C@H](COC(=O)CC2CCCCC2)[C@@H](O)[C@@]1(C)F [Compound 291, ((2R,3R,4R,5R)-5-(2-amino-6-(2-cyclohexyl-N-methylacetamido)-9H-purin-9-yl)-4-fluoro-3-hydroxy-4-methyltetrahydrofuran-2-yl)methyl 2-cyclohexylacetate] | 11 | 17 | 1.6 |  |  | 
CC(=O)OCOC(=O)OC[C@H]1O[C@@](C#N)(c2ccc3c(NC(=O)[C@@H](N)Cc4ccc(F)cc4)ncnn23)[C@H](O)[C@@H]1O [Compound 366, (((((2R,3S,4R,5R)-5-(4-((S)-2-amino-3-(4-fluorophenyl)propanamido)pyrrolo[2,1-f][1,2,4]triazin-7-yl)-5-cyano-3,4-dihydroxytetrahydrofuran-2-yl)methoxy)carbonyl)oxy)methyl acetate] | 2.7 | 1.1 | 0.39 |  |  | 
CC(=O)OC[C@H]1O[C@@](C#N)(c2ccc3c(NC(=O)c4ccccc4)ncnn23)[C@H](O)[C@@H]1O [Compound 103, ((2R,3S,4R,5R)-5-(4-benzamidopyrrolo[2,1-f][1,2,4]triazin-7-yl)-5-cyano-3,4-dihydroxytetrahydrofuran-2-yl)methyl acetate] | 1.5 | 12 | 8 |  |  | 
CC(C)[C@H](N)C(=O)Nc1ncnn2c([C@]3(C#N)O[C@H](COC(=O)CC4CCCCC4)[C@@H](O)[C@H]3O)ccc12 [Compound 112, [(2R,3S,4R,5R)-5-{4-[(2S)-2-amino-3-methylbutanamido]pyrrolo[2,1-f][1,2,4]triazin-7-yl}-5-cyano-3,4-dihydroxyoxolan-2-yl]methyl 2-cyclohexylacetate] | 0.14 | 6.1 | 44 |  |  | 
CCC(=O)Nc1nc(NC)c2ncn([C@@H]3O[C@H](COC(C)=O)[C@@H](O)[C@@]3(C)F)c2n1 [Compound 330, ((2R,3R,4R,5R)-4-fluoro-3-hydroxy-4-methyl-5-(6-(methylamino)-2-propionamido-9H-purin-9-yl)tetrahydrofuran-2-yl)methyl acetate] | 0.54 | 7 | 13 |  |  | 
CC(C)[C@H](N)C(=O)O[C@H]1[C@@H](O)[C@](C#N)(c2ccc3c(N)ncnn23)O[C@@H]1COC(=O)Cc1ccccc1 [Compound 43, (2R,3S,4R,5R)-5-{4-aminopyrrolo[2,1-f][1,2,4]triazin-7-yl}-5-cyano-4-hydroxy-2-{[(2-phenylacetyl)oxy]methyl}oxolan-3-yl (2S)-2-amino-3-methylbutanoate] |  |  |  | 0.74 | 0.22 | 0.3
CC(C)C(=O)O[C@H]1[C@@H](O)[C@](C#N)(c2ccc3c(N)ncnn23)O[C@@H]1COC(=O)CC1CCCCC1 [Compound 30, (2R,3S,4R,5R)-5-(4-aminopyrrolo[2,1-f][1,2,4]triazin-7-yl)-5-cyano-2-((2-cyclohexylacetoxy)methyl)-4-hydroxytetrahydrofuran-3-yl isobutyrate] | 7.3 | 7.1 | 1 |  |  | 
CCC(=O)O[C@H]1[C@@H](O)[C@](C#N)(c2ccc3c(NC(=O)C(C)C)ncnn23)O[C@@H]1COC(=O)[C@@H](N)C(C)C [Compound 362, ((2R,3S,4R,5R)-5-cyano-4-hydroxy-5-(4-isobutyramidopyrrolo[2,1-f][1,2,4]triazin-7-yl)-3-(propionyloxy)tetrahydrofuran-2-yl)methyl L-valinate] | 4.6 | 6.7 | 1.5 |  |  | 
